Results on 2 molecules are retold here after PMC7291522 (Thrombosis Journal, 2020).

Data set [1] relates to blood coagulation. Briefly: Activated partial thromboplastin time (aPTT), HemosIL SynthASil reagent. Format: in vivo, human. The following applies: 30 mg edoxaban, Day 3. How it is done:
(§1) Blood was collected in a vacuum blood collection tube containing 3.2% sodium citrate, and the schedule for the blood sample collection is shown in Table 1. Blood coagulation marker PT was measured by PT reagent Thrombocheck-PT in system CS-200i (Sysmex Corporation, Japan); aPTT by aPTT reagent HemosIL SynthASil in system ACL TOP Base (IL, Japan; Instrumentation Laboratory, USA) and F1 + 2 by ELISA Enzygnost F1 + 2 monoclonal reagent in system Behring ELISA Processor III and DiaSorin (BIT Analytical Instruments GmbH, Germany). These assays were carried out at LSI Medience Corporation (Tokyo, Japan). We measured PRU with VerifyNow system (Instrumentation Laboratory, Bedford, MA, USA) at Sumida Hospital.

For data set [2], the system named is platelet aggregation. Kind of data set: P2Y12 reaction units (PRU), VerifyNow system. Type of data set: in vivo, human. Conditions: 30 mg edoxaban alone, Day 3. How it is done: as §1
Data set [3] is described as follows: Plasma edoxaban pharmacokinetics (LC-MS/MS, noncompartmental analysis). Conditions: 30 mg edoxaban alone, Day 3; for AUC / Cmax / Tmax: male, human, in vivo, 30 mg; for AUC: AUCtau,ss of edoxaban; for Cmax: Cmax,ss of edoxaban; for Tmax: tmax,ss of edoxaban. How it is done: Plasma samples were obtained by centrifugation, and the samples were immediately frozen at − 20 °C or lower.
Summary statistics were calculated for baseline and postdose values for the primary endpoint of BT and secondary endpoints of PD indices (PT, aPTT, F1 + 2, PRU) for each target population. […] 8.1 based on Model 1200 (Extravascular). AUCtau,ss was calculated by the linear-Log trapezoidal method.
For the secondary endpoints analysis, we used the logarithmically converted PK parameters (Cmax,ss, AUCtau,ss, tmax,ss) as dependent variables in a linear mixed model with fixed and variable effects.

Data set [4] deals with healthy elderly Japanese male subjects. Briefly: Bleeding time (BT) by the Ivy method. The following applies: 30 mg edoxaban once daily for 3 days, Day 3, 3 h after administration.
Data set [5] has the same test system. Briefly: Safety: adverse events in the clinical pharmacology study. The following applies: 30 mg edoxaban alone, 24 participants.
Data set [6] has the same test system. Conditions: in vivo.
Excerpt: This study was a randomized, open-label, parallel-group, repeated-dose study conducted at a single center.
We measured BT by the Ivy method [12] using a needle type of BD Microtainer Contact-Activated Lancet device (Becton, Dickinson and Company, USA). The incision was made in the lateral aspect of the forearm by puncturing at one arbitrary site with the device. After the incision, we blotted the blood every 30 s with filter paper until the bleeding reached hemostasis and recorded the time from the puncture to the end of bleeding. When the time to hemostasis exceeded 10 min, it was recorded as such, ending the observation. […] Baseline BT was measured on the day of admission at approximately the same time of day as the BT evaluations on Day 3 and Day 8, 3 hours after the administration of study drug(s).
For the primary endpoint analysis, a logarithmically converted value of BT for each sample was the dependent variable in a linear mixed model with fixed and random effects.

With `CN1CCc2nc(C(=O)N[C@@H]3C[C@@H](C(=O)N(C)C)CC[C@@H]3NC(=O)C(=O)Nc3ccc(Cl)cn3)sc2C1` [Edoxaban, edoxaban], the “aPTT, mean” value came out at 38.0 s in data set [1] (Group 1, baseline 31.9) and 39.9 s in data set [1] (Group 2, baseline 34.2). Further, the “Effect on PRU” value in data set [2] is given as “essentially had no effect”. In addition, the “tmax,ss of edoxaban, Mean (SD)” value in data set [3] (Group 2, n = 12) was 1.0 (0.84) h. The AUC in data set [3] (Mean (SD), Group 1, n = 12) came to 1060 ng·h/mL; in data set [3] (Mean (SD), Group 2, n = 12) it was 1070 ng·h/mL; in data set [3] (Median (IQR), Group 1, n = 12), 1020 ng·h/mL; in data set [3] (Median (IQR), Group 2, n = 12) it was 992 ng·h/mL. The Cmax in data set [3] (Mean (SD), Group 1, n = 12) stood at 216 ng/mL; in data set [3] (Mean (SD), Group 2, n = 12), 191 ng/mL; in data set [3] (Median (IQR), Group 1, n = 12), 200 ng/mL; in data set [3] (Median (IQR), Group 2, n = 12) it was 170 ng/mL. Besides, the Tmax in data set [3] (Mean (SD), Group 1, n = 12) stood at 72 min; in data set [3] (Median (IQR), Group 1, n = 12), 45 min; in data set [3] (Median (IQR), Group 2, n = 12), 30 min. Also, the “Bleeding time, Mean (SD)” value in data set [4] (Group 1, n = 12) is given as 3.5 (0.6) min; in data set [4] (Group 2, n = 12) it was 4.7 (1.6) min. Also, the “Bleeding time, Median (IQR)” value in data set [4] (Group 1, n = 12) is recorded as 3.5 (3.0–4.0) min; in data set [4] (Group 2, n = 12), 4.5 (3.3–6.0) min. Further, the “Positive results in the fecal occult blood test (number)” value in data set [5] was “four”.

In the case of `CC(=O)Oc1cc2c(s1)CCN(C(C(=O)C1CC1)c1ccccc1F)C2` (stereo not drawn) [prasugrel], the “Dose dependence of the effect of prasugrel on BT” value in data set [6] is “dose-dependent”.

In general, AUC refers to concentration integrated over time. The term Cmax denotes the highest concentration seen after dosing. The term Tmax denotes the time at which the peak concentration occurs.
